Measured values taken from US6608086B2, “Dihydropyridines and new uses thereof” (Synaptic Pharmaceutical Corporation, priority 1993, dated 2003).
Counter-ions that a name gives are not always drawn. Like-named read-outs stand apart in the source and are kept apart here.

How the values were obtained:
[1] = molecular target: T1, α1A Human Adrenergic Receptor (Homo sapiens, UniProt P25100); experiment: Radioligand binding, [3H]prazosin, cloned human α1A adrenergic receptor
T1 construct: The entire coding region of α1A (1719 bp); expressed in transfected cells
T1 sequence (P25100 1-572): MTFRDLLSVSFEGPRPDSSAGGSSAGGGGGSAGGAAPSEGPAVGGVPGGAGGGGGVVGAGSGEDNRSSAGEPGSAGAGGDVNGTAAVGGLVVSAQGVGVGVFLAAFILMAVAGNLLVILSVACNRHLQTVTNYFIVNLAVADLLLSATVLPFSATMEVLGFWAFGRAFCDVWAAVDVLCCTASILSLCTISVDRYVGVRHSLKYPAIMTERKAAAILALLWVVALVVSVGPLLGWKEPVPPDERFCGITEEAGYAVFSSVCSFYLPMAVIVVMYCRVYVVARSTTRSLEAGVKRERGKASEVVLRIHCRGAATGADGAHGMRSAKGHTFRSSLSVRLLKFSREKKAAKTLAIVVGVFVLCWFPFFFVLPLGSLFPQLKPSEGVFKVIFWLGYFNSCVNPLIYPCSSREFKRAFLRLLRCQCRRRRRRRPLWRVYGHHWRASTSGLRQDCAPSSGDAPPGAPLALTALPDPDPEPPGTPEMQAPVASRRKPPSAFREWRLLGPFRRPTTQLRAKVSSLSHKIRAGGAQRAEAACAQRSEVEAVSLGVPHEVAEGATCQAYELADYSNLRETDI
Procedure, shortened: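 [3H]prazosin 0.5 nM, transfected LM(tk−) membranes, 37° C, 20 min. Buffer 50 mM Tris-HCl/1 mM MgCl2/0.1% ascorbate, pH 7.5. NSB: 10 μM phentolamine. Filtration harvest.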

α2C receptor = molecular target: T2, α2C receptor (Homo sapiens, UniProt P18825); experiment: Competition binding, [3H]rauwolscine, human α2C receptor
T2 construct: host or cells: LM(tk-) cells, line L-α2C
T2 sequence (P18825 1-462): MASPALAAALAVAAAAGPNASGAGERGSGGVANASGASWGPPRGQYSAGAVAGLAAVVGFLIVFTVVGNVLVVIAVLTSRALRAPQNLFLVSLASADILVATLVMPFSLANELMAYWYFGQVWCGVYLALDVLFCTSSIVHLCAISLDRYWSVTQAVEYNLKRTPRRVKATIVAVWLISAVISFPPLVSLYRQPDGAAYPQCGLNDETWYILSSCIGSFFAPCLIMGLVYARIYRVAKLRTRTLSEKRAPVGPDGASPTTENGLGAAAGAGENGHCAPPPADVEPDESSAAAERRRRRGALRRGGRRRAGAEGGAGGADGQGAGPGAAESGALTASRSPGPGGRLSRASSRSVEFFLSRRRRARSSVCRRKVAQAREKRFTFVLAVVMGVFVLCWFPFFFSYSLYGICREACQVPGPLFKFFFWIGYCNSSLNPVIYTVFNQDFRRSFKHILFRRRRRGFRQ
Procedure, shortened: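 Lysates of LM(tk−) cells stably expressing each α2 subtype were suspended in 25 mM glycylglycine buffer (pH 7.6 at room temperature). Equilibrium competition binding used 0.5 nM [3H]rauwolscine, with nonspecific binding defined by 10 μM phentolamine; bound radioligand was separated by GF/B filtration.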

L-type calcium channel = molecular target: T3, L-type calcium channel (Rattus norvegicus, UniProt P22002); experiment: Competition binding of [3H]nitrendipine to membrane fragments of rat cardiac muscle
T3 construct: membrane fragments of rat cardiac muscle; from tissue; host or cells: rat cardiac muscle membranes
T3 sequence (P22002 whole entry, other chains not shown, the tested form may be a part): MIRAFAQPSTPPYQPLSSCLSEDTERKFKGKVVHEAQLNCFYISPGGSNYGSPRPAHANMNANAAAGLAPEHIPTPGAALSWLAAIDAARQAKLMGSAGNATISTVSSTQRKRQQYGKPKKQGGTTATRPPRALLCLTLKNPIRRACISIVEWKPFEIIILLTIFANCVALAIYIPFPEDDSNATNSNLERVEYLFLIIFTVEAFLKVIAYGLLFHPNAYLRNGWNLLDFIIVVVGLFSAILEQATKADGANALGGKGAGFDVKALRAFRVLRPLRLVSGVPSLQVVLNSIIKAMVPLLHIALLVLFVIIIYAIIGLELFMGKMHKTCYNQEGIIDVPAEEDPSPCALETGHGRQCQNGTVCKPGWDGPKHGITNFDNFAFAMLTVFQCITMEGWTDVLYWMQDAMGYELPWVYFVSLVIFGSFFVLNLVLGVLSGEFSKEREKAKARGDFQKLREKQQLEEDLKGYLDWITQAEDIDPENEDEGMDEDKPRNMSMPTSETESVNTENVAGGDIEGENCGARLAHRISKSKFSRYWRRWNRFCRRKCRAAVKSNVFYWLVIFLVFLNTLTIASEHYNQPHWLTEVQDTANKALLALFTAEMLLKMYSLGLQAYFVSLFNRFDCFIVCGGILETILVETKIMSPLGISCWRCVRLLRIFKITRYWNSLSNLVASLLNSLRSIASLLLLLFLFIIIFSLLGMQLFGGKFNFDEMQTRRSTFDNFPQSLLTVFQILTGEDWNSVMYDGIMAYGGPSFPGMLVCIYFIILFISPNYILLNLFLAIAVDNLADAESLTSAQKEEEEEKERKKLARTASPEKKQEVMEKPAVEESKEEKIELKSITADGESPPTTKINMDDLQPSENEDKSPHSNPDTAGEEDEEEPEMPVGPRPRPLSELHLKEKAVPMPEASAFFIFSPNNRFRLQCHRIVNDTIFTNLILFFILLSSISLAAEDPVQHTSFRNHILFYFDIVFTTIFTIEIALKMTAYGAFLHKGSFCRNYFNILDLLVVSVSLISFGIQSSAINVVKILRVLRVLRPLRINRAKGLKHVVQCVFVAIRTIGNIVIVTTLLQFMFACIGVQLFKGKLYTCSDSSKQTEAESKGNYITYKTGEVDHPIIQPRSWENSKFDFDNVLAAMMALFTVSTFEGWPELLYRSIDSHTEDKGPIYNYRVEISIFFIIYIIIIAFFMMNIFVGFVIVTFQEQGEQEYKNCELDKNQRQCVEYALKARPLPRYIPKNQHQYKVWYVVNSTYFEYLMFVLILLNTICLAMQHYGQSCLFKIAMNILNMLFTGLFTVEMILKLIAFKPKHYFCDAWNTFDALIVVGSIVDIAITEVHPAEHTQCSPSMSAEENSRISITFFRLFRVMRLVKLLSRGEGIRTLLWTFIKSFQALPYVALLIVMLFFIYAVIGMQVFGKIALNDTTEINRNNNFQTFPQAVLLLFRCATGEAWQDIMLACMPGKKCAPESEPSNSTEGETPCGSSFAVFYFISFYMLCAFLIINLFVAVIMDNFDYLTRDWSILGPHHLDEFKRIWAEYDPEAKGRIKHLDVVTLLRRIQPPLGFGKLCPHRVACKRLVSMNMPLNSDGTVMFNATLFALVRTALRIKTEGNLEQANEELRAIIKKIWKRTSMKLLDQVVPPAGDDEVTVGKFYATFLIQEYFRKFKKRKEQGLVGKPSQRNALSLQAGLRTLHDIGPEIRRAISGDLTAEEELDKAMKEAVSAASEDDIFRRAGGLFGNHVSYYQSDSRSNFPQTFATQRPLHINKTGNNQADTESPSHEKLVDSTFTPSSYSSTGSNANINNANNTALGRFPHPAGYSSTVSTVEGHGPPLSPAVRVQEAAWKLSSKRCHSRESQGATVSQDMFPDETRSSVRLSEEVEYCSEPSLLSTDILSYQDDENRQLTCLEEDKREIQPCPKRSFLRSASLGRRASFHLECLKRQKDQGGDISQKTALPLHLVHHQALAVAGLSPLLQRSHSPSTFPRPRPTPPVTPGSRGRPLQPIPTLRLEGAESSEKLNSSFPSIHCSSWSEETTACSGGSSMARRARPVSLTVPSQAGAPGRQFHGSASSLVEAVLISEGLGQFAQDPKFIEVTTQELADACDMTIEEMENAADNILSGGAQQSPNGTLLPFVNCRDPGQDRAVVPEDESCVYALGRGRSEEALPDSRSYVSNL
T3 sequence (P54290 25-944 partner limits assumed, other chains not shown): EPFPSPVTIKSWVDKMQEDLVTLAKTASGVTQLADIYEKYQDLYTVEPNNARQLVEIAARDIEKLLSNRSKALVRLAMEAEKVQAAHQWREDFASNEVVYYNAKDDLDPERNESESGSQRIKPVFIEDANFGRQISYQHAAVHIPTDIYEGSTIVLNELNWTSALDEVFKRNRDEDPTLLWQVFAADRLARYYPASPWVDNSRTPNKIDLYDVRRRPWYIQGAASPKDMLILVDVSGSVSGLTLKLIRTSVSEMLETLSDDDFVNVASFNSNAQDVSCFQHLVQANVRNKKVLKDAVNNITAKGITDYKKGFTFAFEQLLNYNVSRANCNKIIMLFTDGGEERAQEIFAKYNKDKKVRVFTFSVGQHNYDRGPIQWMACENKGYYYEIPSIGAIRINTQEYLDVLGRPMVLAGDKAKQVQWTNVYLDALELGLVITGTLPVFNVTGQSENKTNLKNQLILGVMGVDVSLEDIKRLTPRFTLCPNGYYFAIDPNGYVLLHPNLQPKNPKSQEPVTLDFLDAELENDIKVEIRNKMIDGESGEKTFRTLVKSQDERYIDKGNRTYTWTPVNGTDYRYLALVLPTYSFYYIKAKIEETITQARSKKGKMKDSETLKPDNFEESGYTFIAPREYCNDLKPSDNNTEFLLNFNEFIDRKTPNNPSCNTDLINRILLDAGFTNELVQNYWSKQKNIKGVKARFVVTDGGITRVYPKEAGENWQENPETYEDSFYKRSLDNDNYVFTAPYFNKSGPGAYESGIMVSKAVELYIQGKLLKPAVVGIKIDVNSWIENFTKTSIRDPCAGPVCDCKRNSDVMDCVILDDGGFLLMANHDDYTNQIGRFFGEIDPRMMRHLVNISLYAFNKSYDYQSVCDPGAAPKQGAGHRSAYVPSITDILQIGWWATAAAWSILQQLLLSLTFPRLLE
T3 sequence (P54290 945-1091 partner limits assumed, other chains not shown): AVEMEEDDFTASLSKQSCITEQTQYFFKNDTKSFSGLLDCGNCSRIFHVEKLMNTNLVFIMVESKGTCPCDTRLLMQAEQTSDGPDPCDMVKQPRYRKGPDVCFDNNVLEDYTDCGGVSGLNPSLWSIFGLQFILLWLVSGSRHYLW

[2] = pKi alpha-1 1a, [3H]prazosin, cloned human receptor in LM(tk-) cell membranes, SEM and n in lines below
[3] = [3H]rauwolscine, LM(tk-) cell line L-α2C, SEM and n in lines below, read-out: pKi alpha-2 2c (converted)
[4] = pKi alpha-1 1a, [3H]prazosin, cloned human α1A receptor, LM(tk−) cell membranes
[5] = [3H]rauwolscine, human α2C receptor, LM(tk−) cells, read-out: pKi alpha-2 2c (converted)
[6] = [3H]nitrendipine, rat cardiac muscle membrane fragments, L-type calcium channel, read-out: pKi Ca (converted)
[7] = pKi alpha-2 2c, [3H]rauwolscine, human α2C receptor, LM(tk−) cells

## CC1=C(C(=O)NCCCN2CCC(c3ccccc3)(c3ccccc3)CC2)C(c2ccc([N+](=O)[O-])cc2)C2=C(CCCC2=O)N1 (stereo not shown) [Example 40, 1,4,5,6,7,8-Hexahydro-2-methyl-4-(4-nitrophenyl)-5-oxo-3-{N-[3-(4,4-diphenylpiperidin-1-yl)propyl]}carboxamidoquinoline]
[1]; [2]
  Ki: 0.55 µM
α2C receptor; [3]
  Ki: 0.977 µM
L-type calcium channel; [3H]nitrendipine, rat cardiac muscle membranes, SEM and n in lines below, read-out: pKi Ca (converted)
  Ki: 15.8 µM

## COC(=O)C1=C(C)NC(C)=C(C(=O)NCCN2CCC(c3ccccc3)(c3ccccc3)CC2)C1c1ccc([N+](=O)[O-])cc1 (stereo not shown) [Example 52, 1,4-Dihydro-3-methoxycarbonyl-2,6-dimethyl-4-(4-nitrophenyl)-5-{N-[2-(4,4-diphenylpiperidin-1-yl)ethyl]}carboxamidopyridine hydrochloride hemihydrate]
[1]; pKi alpha-1 1a
  Ki: 1.15 µM
α2C receptor; pKi alpha-2 2c
  Ki: 0.263 µM
L-type calcium channel; pKi Ca
  Ki: 5.13 µM

## COC(=O)C1=C(C)NC(C)=C(C(=O)NCCCN2CCC(c3ccccc3)(c3ccccc3)CC2)C1c1ccc(C)cc1 (stereo not shown) [Example 19, 1,4-Dihydro-3-methoxycarbonyl-1,6-dimethyl-4-(4-methylphenyl)-5-(N-(3-(4,4-diphenylpiperidin-1-yl)propyl)carboxamido)pyridine]
[1]; pKi alpha-1 1a
  Ki: 0.316 µM
α2C receptor; pKi alpha-2 2c
  Ki: 0.417 µM
L-type calcium channel; pKi Ca
  Ki: 7.41 µM

## CC1=C(C(=O)NCCCN2CCC(c3ccccc3)(c3ccccc3)CC2)C(c2ccc([N+](=O)[O-])cc2)C(C(=O)OCCC#N)=C(C)N1 (stereo not shown) [Example 160]
[1]; [4]
  Ki: 0.251 µM
α2C receptor; [5]
  Ki: 0.155 µM
L-type calcium channel; [6]
  Ki: 15.5 µM

## CNC(=O)C1=C(C)NC(C)=C(C(=O)NCCCN2CCC(O)(c3ccccc3)CC2)C1c1ccc([N+](=O)[O-])cc1 (stereo not shown) [Example 162, 1,4-Dihydro-3-{N-[3-(4-hydroxy-4-phenylpiperidin-1-yl)propyl]}carboxamido-2,6-dimethyl-5-(N-methyl)carboxamido-4-(4-nitrophenyl)pyridine]
[1]; [4]
  Ki: 1.07 µM
α2C receptor; [5]
  Ki: 0.55 µM
L-type calcium channel; [6]
  Ki: 50.1 µM

## COc1ccc(C2(c3ccccc3)CCN(CCCNC(=O)C3=C(C)NC(C)=C(C(N)=O)C3c3ccc([N+](=O)[O-])cc3)CC2)cc1 (stereo not shown) [Example 98, 5-Carboxamido-1,4-dihydro-3-{N-[3-(4-(4-methoxyphenyl)-4-phenylpiperidin-1-yl)propyl]}carboxamido-2,6-dimethyl-4-(4-nitrophenyl)pyridine hydrochloride]
[1]; [4]
  Ki: 1.1 µM
α2C receptor; [5]
  Ki: 0.427 µM
L-type calcium channel; [6]
  Ki: 1000 µM

## COC(=O)C1=C(C)N(C)C(C)=C(C(=O)OCCCN2CCC(c3ccccc3)(c3ccccc3)CC2)C1c1ccc([N+](=O)[O-])cc1 (stereo not shown) [Example 92, 1,4-Dihydro-5-methoxycarbonyl-1,2,6-trimethyl-4-(4-nitrophenyl)-3-[3-(4,4-diphenylpiperidin-1-yl)propoxy]carbonylpyridine hydrochloride hydrate]
[1]; pKi alpha-1 1a
  Ki: 0.209 µM
α2C receptor; pKi alpha-2 2c
  Ki: 0.759 µM
L-type calcium channel; pKi Ca
  Ki: 4.17 µM

## CCC1=C(C(=O)NCCCN2CCC(c3ccccc3)(c3ccccc3)CC2)C(c2cccc(OC)c2)C(C(=O)NCCCN2CCC(c3ccccc3)(c3ccccc3)CC2)=C(CC)N1 [Example 112, 2,6-Diethyl-1,4-dihydro-4-(3-methoxyphenyl)-3,5-bis(N-(3-(4,4-diphenylpiperidin-1-yl)propyl)carboxamido)-pyridine]
[1]; [4]
  Ki: 0.0302 µM
α2C receptor; [7]
  Ki: 0.269 µM
L-type calcium channel; [6]
  Ki: 0.0575 µM

## CCC1=C(C(=O)NC)C(c2ccc([N+](=O)[O-])cc2)C(C(=O)NCCCN2CCC(c3ccccc3)(c3ccccc3)CC2)=C(CC)N1 (stereo not shown) [Example 128, 2,6-Diethyl-1,4-dihydro-5-(N-methyl)carboxamido-4-(4-nitrophenyl)-3-{N-[3-(4,4-diphenylpiperidin-1-yl)propyl]}carboxamidopyridine]
[1]; [4]
  Ki: 0.977 µM
α2C receptor; [5]
  Ki: 0.219 µM

## CCC1=C(C(N)=O)C(c2ccc(S(C)(=O)=O)cc2)C(C(=O)NCCCN2CCC(c3ccccc3)(c3ccccc3)CC2)=C(CC)N1 (stereo not shown) [Example 116, 5-Carboxamido-2,6-diethyl-1,4-dihydro-4-(4-methanesulfonylphenyl)-3-(N-(3-(4,4-diphenylpiperidin-1-yl)propyl)carboxamido)-pyridine]
[1]; [4]
  Ki: 0.186 µM
α2C receptor; [7]
  Ki: 0.741 µM

## CCNC(=O)C1=C(COCCN=[N+]=[N-])NC(CC)=C(C(=O)NCCCN2CCC(c3ccccc3)(c3ccccc3)CC2)C1c1ccc([N+](=O)[O-])cc1 (stereo not shown) [Example 147, 2-((2-Azidoethyl)oxy)methyl-6-ethyl-3-(N-ethyl)carboxamido-1,4-dihydro-4-(4-nitro)phenyl-5-(N-(3-(4,4-diphenylpiperidin-1-yl-)propyl))carboxamidopyridine]
[1]; [4]
  Ki: 0.372 µM
α2C receptor; [7]
  Ki: 0.251 µM

## CCC1=C(C(=O)NCCCN2CCC(c3ccccc3)(c3ccccc3)CC2)C(c2ccc([N+](=O)[O-])cc2)C(C(=O)NC)=C(COCCN=[N+]=[N-])N1 (stereo not shown) [Example 151, 2-((2-Azidoethyl)oxy)methyl-6-ethyl-1,4-dihydro-3-(N-methyl)carboxamido-4-(4-nitro)phenyl-5-(N-(3-(4,4-diphenylpiperidin-1-yl)propyl))carboxamidopyridine]
[1]; [4]
  Ki: 0.631 µM
α2C receptor; [7]
  Ki: 0.209 µM

## CCC1=C(C(=O)OCCC#N)C(c2ccc([N+](=O)[O-])cc2)C(C(=O)NCCCN2CCC(c3ccccc3)(c3ccccc3)CC2)=C(COC)N1 (stereo not shown) [Example 135]
[1]; [3H]prazosin, cloned human α1A receptor, LM(tk−) cell membranes, read-out: pKi alpha-1 1a (converted)
  Ki: 0.501 µM
α2C receptor; [5]
  Ki: 0.339 µM

## CCC1=C(C(=O)NCCCN2CCC(c3ccccc3)(c3ccccc3)CC2)C(c2ccc([N+](=O)[O-])cc2)C(C(N)=O)=C(COCCN=[N+]=[N-])N1 (stereo not shown) [Example 149, 2-((2-Azidoethyl)oxy)methyl-3-carboxamido-6-ethyl-1,4-dihydro-4-(4-nitro) phenyl-5-(N-(3-(4,4-diphenylpiperidin-1-yl)propyl))carboxamidopyridine]
[1]; [4]
  Ki: 0.324 µM
α2C receptor; [7]
  Ki: 0.257 µM

## CCC1=C(C(=O)OCCC#N)C(c2ccc([N+](=O)[O-])cc2)C(C(=O)NCCCN2CCC(c3ccccc3)(c3ccccc3)CC2)=C(COCCN=[N+]=[N-])N1 (stereo not shown) [Example 141]
[1]; [4]
  Ki: 0.0501 µM
α2C receptor; [7]
  Ki: 0.355 µM

## CCC1=C(C(N)=O)C(c2ccc([N+](=O)[O-])cc2)C(C(=O)NCCCN2CCC(c3ccccc3)(c3ccccc3)CC2)=C(CC)N1 (stereo not shown) [Example 42, 5-carboxamido-2,6-diethyl-1,4-dihydro-4-(4-nitrophenyl)-3-{N-[3-(4,4-diphenylpiperidin-1-yl)propyl]}carboxamidopyridine]
[1]; [2]
  Ki: 0.447 µM
α2C receptor; pKi alpha-2 2c, [3H]rauwolscine, LM(tk-) cell line L-α2C, SEM and n in lines below
  Ki: 0.17 µM

## COC(=O)C1=C(C)NC(C)=C(C(=O)NCCCN2CCC(c3ccccc3)(c3ccccc3)CC2)C1c1cccnc1 (stereo not shown) [Example 14, 1,4-Dihydro-3-methoxycarbonyl-2.6-dimethyl-5-(N-(3-(4,4-diphenylpiperidin-1-yl)propyl)carboxamido)-4-(3-pyridyl)pyridine]
[1]; [2]
  Ki: 4.07 µM
α2C receptor; [3]
  Ki: 1.1 µM

## CCC1=C(C(N)=O)C(c2ccc([N+](=O)[O-])cc2)C(C(=O)NCCCN2CCC(c3ccccc3)(c3ccccc3)CC2)=C(C)N1 (stereo not shown) [Example 41, 3-Carboxamido-2-ethyl-1,4-dihydro-6-methyl-4-(4-nitrophenyl)-3-{N-[3-(4,4-diphenylpiperidin-1-yl)propyl]}carboxamidopyridine]
[1]; [2]
  Ki: 0.501 µM
α2C receptor; [3]
  Ki: 0.437 µM

## CCC1=C(C(=O)NCCCN2CCC(c3ccccc3)(c3ccccc3)CC2)C(c2ccc([N+](=O)[O-])cc2)C(C(=O)OC(C)(C)C)=C(COCCN=[N+]=[N-])N1 (stereo not shown) [Example 139]
[1]; [4]
  Ki: 0.479 µM
α2C receptor; [7]
  Ki: 0.309 µM
